Laboratory results published in patent US20230011869A1 (Hoffmann-La Roche Inc., priority 2018, published 2023).
Counter-ions that a name gives are not always drawn.

system: Acinetobacter baumannii ATCC17978; test: Antimicrobial susceptibility testing: 90% growth inhibitory concentration (IC90) determination, Iso-Sensitest broth; format: cell-based; settings: 90% growth inhibitory concentration, Acinetobacter baumannii ATCC17978, Iso-Sensitest broth, OD 600 nm over 16 h; read-out: ATCC17978 IC90
In short: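 A. baumannii ATCC17978 grown in Iso-Sensitest broth across 10 compound concentrations at 35±2 °C.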

| Structure (SMILES) | IC90 [nM] |
| --- | --- |
| COc1ccc(-c2cnc3c(Nc4ccc(C(=O)N5CCN(S(N)(=O)=O)CC5)c(C)c4)nccn23)cc1F [Example 389, 4-[4-[[3-(3-fluoro-4-methoxyphenyl)imidazo[1,2-a]pyrazin-8-yl]amino]-2-methylbenzoyl]piperazine-1-sulfonamide] | 310 |
| COc1ccc(-c2cnc3c(Nc4ccc(C(=O)N5CCN(CCO)CC5)c(C)c4)nccn23)cc1 [Example 371, [4-(2-hydroxyethyl)piperazin-1-yl]-[4-[[3-(4-methoxyphenyl)imidazo[1,2-a]pyrazin-8-yl]amino]-2-methylphenyl]methanone] | 1200 |
| Cc1cc(Nc2nccn3c(-c4ccc(O[C@@H](C)C#N)c(F)c4F)cnc23)ccc1C(=O)N1CCN(C(=O)[C@@H]2C[C@](C)(O)CN2)CC1 [Example 459, (2S)-2-[2,3-difluoro-4-[8-[4-[4-[(2S,4S)-4-hydroxy-4-methylpyrrolidine-2-carbonyl]piperazine-1-carbonyl]-3-methylanilino]imidazo[1,2-a]pyrazin-3-yl]phenoxy]propanenitrile; for-mic acid] | 82 |
| COc1ccc(-c2cnc3c(Nc4ccc(C(=O)N5CCC(C(=O)NC(CO)(CO)CO)CC5)c(C)c4)nccn23)cc1F [Example 388, N-[1,3-dihydroxy-2-(hydroxymethyl)propan-2-yl]-1-[4-[[3-(3-fluoro-4-methoxyphenyl)imidazo[1,2-a]pyrazin-8-yl]amino]-2-methylbenzoyl]piperidine-4-carboxamide] | 260 |
| COc1ccc(-c2cnc3c(Nc4ccc(C(=O)N5CCC(C(=O)N6CCN(C)C(C(=O)O)C6)CC5)c(C)c4)nccn23)c(F)c1F (centres unmarked) [Example 273, 4-[1-[4-[[3-(2,3-difluoro-4-methoxyphenyl)imidazo[1,2-a]pyrazin-8-yl]amino]-2-methylbenzoyl]piperidine-4-carbonyl]-1-methylpiperazine-2-carboxylic acid] | 2400 |
| COc1ccc(-c2cnc3c(Nc4ccc(C(=O)N5CCC(CNCCC(=O)O)CC5)c(C)c4)nccn23)cc1 [Example 435, 3-[[1-[4-[[3-(4-methoxyphenyl)imidazo[1,2-a]pyrazin-8-yl]amino]-2-methylbenzoyl]piperidin-4-yl]methylamino]propanoic acid] | 3200 |
| COc1ccc(-c2cnc3c(Nc4ccc(C(=O)N5CCN(C(=O)[C@@H]6CCN6)CC5)c(C)c4)nccn23)cc1F [Example 175, [4-[(2S)-azetidine-2-carbonyl]piperazin-1-yl]-[4-[[3-(3-fluoro-4-methoxy-phenyl)imidazo[1,2-a]pyrazin-8-yl]amino]-2-methyl-phenyl]methanone] | 250 |
| Cc1cc(Nc2nccn3c(-c4ccc(OCC#N)c(F)c4F)cnc23)ccc1C(=O)N1CCC(CN)CC1 [Example 31, 2-[4-[8-[4-[4-(aminomethyl)piperidine-1-carbonyl]-3-methyl-anilino]imidazo[1,2-a]pyrazin-3-yl]-2,3-difluoro-phenoxy]acetonitrile;2,2,2-trifluoroacetic acid] | 120 |
| CNC(=O)C1CCN(C(=O)c2ccc(Nc3nccn4c(-c5ccc(OC(F)F)cc5)cnc34)cc2C)CC1 [Example 15, 1-(4-((3-(4-(difluoromethoxy)phenyl)imidazo[1,2-a]pyrazin-8-yl)amino)-2-methylbenzoyl)-N-methylpiperidine-4-carboxamide] | 150 |
| CCc1cc(Nc2nccn3c(-c4ccc(OC)c(F)c4)cnc23)ccc1C(=O)N1CCN(C(=O)CNC)CC1 [Example 398, 1-[4-[2-ethyl-4-[[3-(3-fluoro-4-methoxyphenyl)imidazo[1,2-a]pyrazin-8-yl]amino]benzoyl]piperazin-1-yl]-2-(methylamino)ethanone; hy-drochloride] | 370 |
| CNCC1CN(C(=O)N2CCN(C(=O)c3ccc(Nc4nccn5c(-c6ccc(OC(F)F)cc6)cnc45)cc3C)CC2)CCO1 (centres unmarked) [Example 136, [4-[[3-[4-(difluoromethoxy)phenyl]imidazo[1,2-a]pyrazin-8-yl]amino]-2-methyl-phenyl]-[4-[2-(methylaminomethyl)morpholine-4-carbonyl]piperazin-1-yl]methanone hydrochloride] | 270 |
| COc1ccc(-c2cnc3c(Nc4ccc(C(=O)N5CCN(C(=O)NC[C@@H](C)N)CC5)c(C)c4)nccn23)c(Cl)c1F [Example 155, N-[(2R)-2-aminopropyl]-4-[4-[[3-(2-chloro-3-fluoro-4-methoxy-phenyl)imidazo[1,2-a]pyrazin-8-yl]amino]-2-methyl-benzoyl]piperazine-1-carboxamide formate] | 150 |
| Cc1cc(Nc2nccn3c(-c4ccc(OS(C)(=O)=O)c(F)c4F)cnc23)ccc1C(=O)N1CCN(C(=O)C2CCNCC2)CC1 [Example 446, [2,3-difluoro-4-[8-[3-methyl-4-[4-(piperidine-4-carbonyl)piperazine-1-carbonyl]anilino]imidazo[1,2-a]pyrazin-3-yl]phenyl] methanesulfonate] | 2000 |
| COc1ccc(-c2cnc3c(Nc4ccc(C(=O)N5CC[C@@H](C(=O)N6CCNCC6)[C@H](O)C5)c(C)c4)nccn23)cc1F (racemic) [Example 440, [4-[[3-(3-fluoro-4-methoxyphenyl)imidazo[1,2-a]pyrazin-8-yl]amino]-2-methylphenyl]-[rac-(3R,4S)-3-hydroxy-4-(piperazine-1-carbonyl)piperidin-1-yl]methanone] | 950 |
| COc1ccc(-c2cnc3c(Nc4ccc(C(=O)N5CCC(C(=O)NC6(C(=O)O)CC6)CC5)c(C)c4)nccn23)cc1F [Example 433, 1-[[1-[4-[[3-(3-fluoro-4-methoxyphenyl)imidazo[1,2-a]pyrazin-8-yl]amino]-2-methylbenzoyl]piperidine-4-carbonyl]amino]cyclopropane-1-carboxylic acid] | 1600 |
| COc1ccc(-c2cnc3c(Nc4ccc(C(=O)N5CCC(CN)CC5)c(C(F)F)c4)nccn23)cc1F [Example 340, [4-(aminomethyl)piperidin-1-yl]-[2-(difluoromethyl)-4-[[3-(3-fluoro-4-methoxyphenyl)imidazo[1,2-a]pyrazin-8-yl]amino]phenyl]methanone] | 500 |
| Cc1cc(Nc2nccn3c(-c4ccc(OC(F)F)cc4)cnc23)ccc1C(=O)N1CCN(C(=O)N[C@H]2CCNC2)CC1 [Example 138, 4-[4-[[3-[4-(difluoromethoxy)phenyl]imidazo[1,2-a]pyrazin-8-yl]amino]-2-methyl-benzoyl]-N-[(3S)-pyrrolidin-3-yl]piperazine-1-carboxamide hydrochloride] | 110 |

same assay, conditions: Acinetobacter baumannii, ATCC17978, 16 h, read-out: ATCC17978 IC90, 90% growth inhibitory concentration, Acinetobacter baumannii ATCC17978, Iso-Sensitest broth, OD 600 nm over 16 h

| Structure (SMILES) | IC90 [nM] |
| --- | --- |
| Cc1cc(Nc2nccn3c(-c4ccc(OC(F)F)cc4)cnc23)ccc1C(=O)N1CCOCC1CN (centres unmarked) [Example 378, [3-(aminomethyl)morpholin-4-yl]-[4-[[3-[4-(difluoromethoxy)phenyl]imi-dazo[1,2-a]pyrazin-8-yl]amino]-2-methylphenyl]methanone; hy-drochloride] | 2500 |
| Cc1cc(Nc2nccn3c(-c4ccc(OC(F)F)cc4)cnc23)ccc1C(=O)N1CCN(C(=O)C[C@@H]2CCCN2)CC1 [Example 336, 1-[4-[4-[[3-[4-(difluoromethoxy)phenyl]imi-dazo[1,2-a]pyrazin-8-yl]amino]-2-methylbenzoyl]piperazin-1-yl]-2-[(2S)-pyrrolidin-2-yl]ethanone] | 460 |
| Cc1cc(Nc2nccn3c(-c4ccc(OC(F)F)cc4)cnc23)ccc1C(=O)N1CCC2(CCOCC2)C1 [Example 370, [4-[[3-[4-(difluoromethoxy)phenyl]imi-dazo[1,2-a]pyrazin-8-yl]amino]-2-methylphenyl]-(8-oxa-2-azaspiro[4.5]decan-2-yl)methanone] | 1100 |
| Cc1cc(Nc2nccn3c(-c4ccc(OC(F)F)cc4)cnc23)ccc1C(=O)N1CCN(C(=O)[C@H]2CCN2)CC1 [Example 521, [4-[(2R)-azetidine-2-carbonyl]piperazin-1-yl]-[4-[[3-[4-(difluoromethoxy)phenyl]imi-dazo[1,2-a]pyrazin-8-yl]amino]-2-methylphenyl]methanone; hy-drochloride] | 370 |
| Cc1cc(Nc2nccn3c(-c4ccc(OC(F)F)cc4)cnc23)ccc1C(=O)N1CCC(C(=O)N(C)CC(O)CO)CC1 (centres unmarked) [Example 313, 1-[4-[[3-[4-(difluoromethoxy)phenyl]imi-dazo[1,2-a]pyrazin-8-yl]amino]-2-methylbenzoyl]-N-(2,3-dihydroxypropyl)-N-methylpiperidine-4-carboxamide] | 230 |
| CCc1cc(Nc2nccn3c(-c4ccc(OCC#N)c(F)c4F)cnc23)ccc1C(=O)N1CCC(C(=O)N2CCN[C@H](CO)C2)CC1 [Example 541, 2-[4-[8-[3-ethyl-4-[4-[(3S)-3-(hydroxymethyl)piperazine-1-carbonyl]piperidine-1-carbonyl]anilino]imidazo[1,2-a]pyrazin-3-yl]-2,3-difluorophenoxy]acetonitrile; 2,2,2-trifluoroacetic acid] | 96 |
| CC[C@]1(O)CN[C@H](C(=O)N2CCN(C(=O)c3ccc(Nc4nccn5c(-c6ccc(OC)c(F)c6F)cnc45)cc3C)CC2)C1 [Example 465, [4-[[3-(2,3-difluoro-4-methoxyphenyl)imidazo[1,2-a]pyrazin-8-yl]amino]-2-methylphenyl]-[4-[(2S,4R)-4-ethyl-4-hydroxypyrrolidine-2-carbonyl]piperazin-1-yl]methanone; formic acid] | 170 |
| Cc1cc(Nc2nccn3c(-c4ccc(OC(F)F)cc4)cnc23)ccc1C(=O)N1CCN(C(=O)c2ccc(CN3CCNCC3)cc2)CC1 [Example 337, [4-[4-[[3-[4-(difluoromethoxy)phenyl]imi-dazo[1,2-a]pyrazin-8-yl]amino]-2-methylbenzoyl]piperazin-1-yl]-[4-(piperazin-1-ylmethyl)phenyl]methanone; hydrochloride] | 470 |
| Cc1cc(Nc2nccn3c(-c4ccc(OC(F)F)cc4)cnc23)ccc1C(=O)N1CCN(C(=O)[C@H]2CNCCO2)CC1 [Example 315, [4-[[3-[4-(difluoromethoxy)phenyl]imi-dazo[1,2-a]pyrazin-8-yl]amino]-2-methylphenyl]-[4-[(2R)-morpholine-2-carbonyl]piperazin-1-yl]methanone; hydrochloride] | 240 |
